Laboratory results published in US20220332699A1 (SAGE THERAPEUTICS, INC., priority 2019, published 2022).

Key:
P-gp (MDR1) = assay: Compound permeability and efflux across a MDCK-MDR1 cellular membrane; assay type: in vitro ADME, canine; conditions: dog, pH 7.4, MDCK-MDR1 cell monolayer; for Papp A→B at 2.5 h, 2 µM: A to B; for efflux ratio at 2.5 h, 2 μM: read-out: MDCK Effux Ratio (B:A/A:B)
Protocol: MDR1-MDCKII cells (obtained from Piet Borst at the Netherlands Cancer Institute) were seeded onto […] (PET) in 96-well BD insert systems at 2.5×10^5 cells/mL and grown for 4-7 days until confluent cell monolayer formation.
Transport buffer for test compound was HBSS with 10 mM Hepes (pH 7.4±0.05) with or without 1% BSA and with or without GF120918. Transport buffer for reference compound was HBSS with 10 mM Hepes (pH 7.4±0.05) with or without GF120918. Test and reference compounds (digoxin, nadolol and metoprolol) were diluted with transport buffer from stock solution to a concentration of 2 μM (DMSO<1%) and applied to the apical or basolateral side of the cell monolayer. Permeation of the test compounds from A to B direction or B to A direction was determined in triplicate with and without P-gp inhibitor (GF120918, 10 μM). Digoxin was tested at 10 μM in the presence or absence of 10 μM GF120918 bi-directionally as well, while nadolol and metoprolol were tested at 2 μM in the absence of GF120918 in A to B direction in duplicate. The plate was incubated for 2.5 h in a CO2 incubator at 37±1° C., with 5% CO2 at saturated humidity without shaking. Test and reference compounds were quantified by LC/MS/MS analysis based on the peak area ratio of analyte/IS.
Six wells per 96-well plate were selected for the lucifer yellow rejection assay to determine the cell monolayer integrity. Thus, 75 μL of 100 μM lucifer yellow in transport buffer and 250 μL transport buffer were added to apical and basolateral chambers, respectively. The plate was incubated for 150 min at 37° C. with 5% CO2 and 95% relative humidity without shaking. After 150 minutes incubation, 20 μL of lucifer yellow samples were taken from the apical sides, followed by the addition of 60 μL of Transport Buffer, and then 80 μL of lucifer yellow samples were taken from the basolateral sides. The relative fluorescence unit (RFU) of lucifer yellow was measured at 425/528 nm (excitation/emission) with a Envision plate reader.
The apparent permeability coefficient Papp (cm/s) was calculated using the equation: […]
wherein dCr/dt is the cumulative concentration of compound in the receiver chamber as a function of time (μM/s); Vr is the solution volume in the receiver chamber (0.075 mL on the apical side, 0.25 mL on the basolateral side); A is the surface area for the transport, i.e. 0.0804 cm^2 for the area of the monolayer; C0 is the initial concentration in the donor chamber (μM).
The efflux ratio was calculated using the equation:
Efflux Ratio=Papp(BA)/Papp(AB)

[1] = Compound stability in cryopreserved human hepatocytes; assay type: in vitro ADME; conditions: pooled cryopreserved human hepatocytes, read-out: Human Hep Clint
Protocol: Pooled cryopreserved human hepatocytes from 10 donors were obtained from BioreclamationIVT (Cat No. X008001, Lot MMN). Test compounds (20 μL of 1 mM stock solution in DMSO) and control compounds 7-ethoxycoumarin and 7-hydroxycoumarin (20 μL of 3 mM stock solutions in DMSO) were diluted with 380 μL of 45% MeOH/H2O to obtain 50 μM solutions of test compound and 150 μM solutions of control compounds. Then 50 μL of these respective solutions were mixed with 450 μL of pre-warmed Williams' Medium E to obtain 5 μM test compound and 15 μM control compound solutions; and in duplicate 10 μL of these solutions were added to appropriate wells in a 96-well plate corresponding to incubation times T0, T15, T30, T60 and T90 and kept at 37° C. Cryopreserved human hepatocytes were thawed, isolated and suspended in Williams' Medium E, then diluted with pre-warmed William' Medium E to a concentration of 0.625×10^6 cells/mL. The reaction was started by aliquoting 40 μL of the hepatocytes into the 96-well plates containing 10 μL of the test and control compounds and incubated at 37° C. with 5% CO2. Stop solution (acetonitrile containing 200 ng/mL tolbutamide and labetalol as internal standards) was added at the requisite time (15, 30, 60, or 90 minutes). Hepatocytes were not added to the T0 samples, which were rather directly treated with stop solution. Medium control (MC) sample plates (T0-MC and T90-MC) were incubated in identical fashion as for the test samples, but without addition of hepatocytes and stop solution was added at the requisite times. The plates were vortexed immediately after addition of stop solution and placed on a plate shaker at 500 rpm for 10 min, then centrifuged at 3220×g for 20 min. The supernatants were transferred to 96-deep-well plates, sealed and stored at 4° C. until LC-MS-MS analysis. The concentration of compound remaining was determined by LC-MS-MS and plotted versus time. […]
Cutoff values determined by the hepatocyte stability assay are in Table 2 below: […]

CYP46A1 = CYP46A1 (Homo sapiens, UniProt Q9Y6A2); assay: CYP46A1 Enzyme Assay 2 (testosterone substrate, HPLC-MS); assay type: biochemical; conditions: read-out: IC50 (CYP46A1 inhibitory activity)
CYP46A1, sequence (Q9Y6A2 whole entry): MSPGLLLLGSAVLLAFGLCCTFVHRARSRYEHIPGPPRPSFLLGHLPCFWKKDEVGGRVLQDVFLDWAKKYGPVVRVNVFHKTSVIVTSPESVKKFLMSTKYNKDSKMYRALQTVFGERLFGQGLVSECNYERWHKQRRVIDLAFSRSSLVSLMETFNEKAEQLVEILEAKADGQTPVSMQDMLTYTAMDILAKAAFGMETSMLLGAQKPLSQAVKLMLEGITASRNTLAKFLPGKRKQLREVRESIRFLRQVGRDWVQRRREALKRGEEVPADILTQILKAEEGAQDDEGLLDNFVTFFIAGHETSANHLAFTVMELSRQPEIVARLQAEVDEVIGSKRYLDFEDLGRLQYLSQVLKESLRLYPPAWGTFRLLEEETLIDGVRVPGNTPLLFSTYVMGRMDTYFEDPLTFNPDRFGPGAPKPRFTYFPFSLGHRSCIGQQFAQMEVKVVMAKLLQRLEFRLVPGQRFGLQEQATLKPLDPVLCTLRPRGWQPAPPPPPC
Method in brief: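 CYP46A1 (5 μM final) with testosterone ([…] final) preincubated with compound 30 min at 37° C, reaction started with NADPH-generating system and run 15 min at 37° C. Quenched in methanol containing diclofenac internal standard; product read by HPLC-MS.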

Mouse pharmacokinetics = assay type: in vivo; conditions: 30 mg/kg PO
Protocol: Compound A6 was evaluated in a mouse pharmacokinetics (PK) study. The compound was dosed at 30 mg/kg PO to 3 male CD-1 mice, formulated as a solution in 30% hydroxypropyl beta-cyclodextran, with a dosing volume of 5 ml/kg. Plasma samples were collected at 0.25, 0.50, 1.0, 2.0, 4.0, 8.0 and 24 h post-dose. In 2 separate groups with 3 mice/group, Compound A6 was dosed at 30 mg/kg, PO and plasma and brain samples were collected at 0.5 and 2.0 h post-dose. […] The brain to plasma ratio at 0.25 and 2.0 h was 0.39 and 0.41, respectively.

Papp A→B at 2.5 h, 2 µM (P-gp (MDR1)) | efflux ratio at 2.5 h, 2 μM (P-gp (MDR1)) | CLint scaled at 1 µM [1] | IC50 (CYP46A1) | Structure (SMILES) | other results
– | – | – | < 100 nM | CC(c1c(F)cc(F)cc1F)C1(C#N)CCN(C(=O)c2cccnc2-c2ccncn2)CC1 (stereo in doubt) [Compound A270, (S)-1-(2-(pyrimidin-4-yl)nicotinoyl)-4-(1-(2,4,6-trifluorophenyl)ethyl)piperidine-4-carbonitrile] | –
– | – | – | 100 to 1000 nM | N#CC1(CCc2ccccc2)CCN(C(=O)c2cccnc2-c2ccncc2)CC1 [Compound A68, 1-([2,4′-bipyridine]-3-carbonyl)-4-phenethylpiperidine-4-carbonitrile] | –
– | – | – | < 100 nM | N#CC1(Cc2ccc(F)cc2)CCN(C(=O)c2cc(C3CC3)ccc2-c2ccncn2)CC1 [Compound A254, 1-(5-cyclopropyl-2-(pyrimidin-4-yl)benzoyl)-4-(4-fluorobenzyl)piperidine-4-carbonitrile] | –

The remaining lines, values behind:

Structure (SMILES) | Papp A→B at 2.5 h, 2 µM (P-gp (MDR1)) | efflux ratio at 2.5 h, 2 μM (P-gp (MDR1)) | CLint scaled at 1 µM [1] | IC50 (CYP46A1) | other results
N#CC1(Cc2ccccc2)CCN(C(=O)c2cccnc2-c2ccncc2)CC1 [Compound A32, 1-([2,4′-bipyridine]-3-carbonyl)-4-benzylpiperidine-4-carbonitrile] | 28 ×10⁻⁶ cm/s | 1.2 | < 18 mL/min/kg | < 100 nM | –
N#CC1(Cc2ccc(F)cc2)CCN(C(=O)c2cccnc2-c2ccncn2)CC1 [Compound A6, 4-(4-fluorobenzyl)-1-(2-(pyrimidin-4-yl)nicotinoyl)piperidine-4-carbonitrile] | 22 ×10⁻⁶ cm/s | 1.4 | < 18 mL/min/kg | < 100 nM | Kp at 0.25 h (Mouse pharmacokinetics; CD-1, mouse, brain and plasma, mice, at 0.25 h, read-out: brain to plasma ratio): 0.39; Kp at 2 h (Mouse pharmacokinetics; CD-1, mouse, brain and plasma, mice, at 2.0 h, read-out: brain to plasma ratio): 0.41; AUC (Mouse pharmacokinetics; mouse, male CD-1 mice, plasma): 14400 ng·h/mL; Cmax (Mouse pharmacokinetics; mouse, male CD-1 mice, plasma): 10700 ng/mL; half-life (Mouse pharmacokinetics; mouse, male CD-1 mice, plasma): 57.6 min
N#CC1(Cc2ccc(F)cc2)CCN(C(=O)c2cccnc2-c2ccncc2)CC1 [Compound A14, 1-([2,4′-bipyridine]-3-carbonyl)-4-(4-fluorobenzyl)piperidine-4-carbonitrile] | 21 ×10⁻⁶ cm/s | 1.2 | < 18 mL/min/kg | < 100 nM | –
N#CC1(Cc2ccc(-c3ccccc3)cc2)CCN(C(=O)c2cccnc2-c2ccncc2)CC1 [Compound A19, 4-([1,1′-biphenyl]-4-ylmethyl)-1-([2,4′-bipyridine]-3-carbonyl)piperidine-4-carbonitrile] | – | – | – | < 100 nM | –
N#CC1(Cc2ccc(F)cc2F)CCN(C(=O)c2cccnc2-c2ccncn2)CC1 [Compound A51, 4-(2,4-difluorobenzyl)-1-(2-(pyrimidin-4-yl)nicotinoyl)piperidine-4-carbonitrile] | – | – | – | < 100 nM | –
